The test system of data set [1] is Reconstructed Human Epidermis (RHE) EpiDerm. The data set can be described thus: In vitro Skin Irritation Test on Reconstructed Human Epidermis (MTT viability). Conditions: for increase of cell concentration in comparison to control samples: RHE model, proliferation.
Method: A Skin Irritation Test was prepared according to SOP (Standard Operation Protocol) of In vitro Skin Irritation Test (ECVAM): Human Skin Model, EpiDerm-200, Version: 7.0, 30th Oct 2007.
Standard EpiDermFT kit (MatTek Corporation) consisted of 24 tissues. Costar Snapwell single well tissue culture plate inserts had the surface area of about 1.0 cm^2 and the diameter of about 1.2 cm. Moreover inserts were equipped with pores (size 0.4 μm diameter). Before test, all tissues were visually inspected if there are any physical imperfections. […] The culture medium was fed through a microporous membrane. The tissue contained 8–12 cell layers plus stratum corneum (basal, spinous, and granular layers) [35].
In vitro skin irritation test was prepared according to the procedure described by Kandarova et al. [35]. On the first day, tissues were topically exposed to the oil solutions of tested triterpenes. White crystals of each compound were dissolved in caprylic and capric triglyceride (Crodamol GTCC, Croda). The esters concentration in the solutions was 0.5% (m/m). Three tissues were used for each tested substance, as well as for the positive and negative control. Positive control solution consisted of 5% aq. solution of SDS (Sodium Dodecyl Sulfate, Mattek), and a negative control solution consisted of Caprylic and Capric Triglycerides (Crodamol GTCC, Croda). Chemical exposure time was 60 min, during which, for 35 min, the tissues were kept in an incubator at 37°C (chamber Heraeus, Kendro). The test substances were then removed from the tissue surface by an extensive washing procedure using DPBS (phosphate-buffered saline, pH = 7.4, Mattek). The tissue inserts were blotted and transferred to fresh medium.
After 24 hours of incubation, the medium was exchanged and the tissues were incubated for an additional 18 hours. After 42 hours of incubation time, the tissues were transferred into a yellow solution of MTT (3-(4,5-dimethylthiazol-2-yl)-2,5-diphenyltetrazolium bromide, Mattek) and incubated for a further 3 hours. The resultant purple-blue formazan salt, formed mainly by mitochondrial metabolism, was extracted after 2 hours with isopropanol, pure (Mattek). The optical density (OD570) of the extracted formazan solution was determined using a spectrophotometer (Biotek, PowerWave XS). Cells viability assay was calculated referring to the negative control tissues. A substance is classified as an irritant if the tissue viability relative to the negative control treated tissues is reduced below 50%.

Structures are written as SMILES. Structures can show the parent of a compound that is named as a salt.

As usually defined, the melting point is the temperature of the solid-liquid transition. As for `C=C(C)C1CCC2(C)CCC3(C)C(CCC4C5(C)CCC(OC(=O)CCC(=O)O)C(C)(C)C5CCC43C)C12` (stereo not drawn) (as salt: succinate) [Compound 5, Lupeol succinate], the melting point is 221 to 223 °C. Regarding `C=C(C)C1CCC2(C)CCC3(C)C(CCC4C5(C)CCC(OC(C)=O)C(C)(C)C5CCC43C)C12` (stereo not drawn) [Compound 2, Lupeol acetate], the melting point is 216 to 219 °C. Also, in data set [1], the “increase of cell concentration in comparison to control samples” value (“increase of cell concentration” for short) is “more than 30%”.

`C=C(C)C1CCC2(C)CCC3(C)C(CCC4C5(C)CCC(OC(=O)CC)C(C)(C)C5CCC43C)C12` (stereo not drawn) [Compound 3, Lupeol propionate] registered a melting point of 220 to 222 °C. In addition, the “increase of cell concentration” value in data set [1] is reported as “more than 30%”.

In turn, `C=C(C)[C@@H]1CC[C@]2(C)CC[C@]3(C)[C@H](CC[C@@H]4[C@@]5(C)CC[C@H](OC(=O)c6ccncc6)C(C)(C)[C@@H]5CC[C@]43C)[C@@H]12` [Compound 4, Lupeol isonicotinate] yielded a melting point of 179 to 183 °C. The “increase of cell concentration” value in data set [1] is listed as “more than 30%”. As to `C=C(C)[C@@H]1CC[C@]2(C)CC[C@]3(C)[C@H](CC[C@@H]4[C@@]5(C)CC[C@H](OC(=O)c6ccccc6OC(C)=O)C(C)(C)[C@@H]5CC[C@]43C)[C@@H]12` [Compound 6, Lupeol acetylsalicylate], the melting point fell in the range of 226 to 229 °C.

`CCCCCCCCCCCCOS(=O)(=O)[O-].[Na+]` [PC, Sodium Dodecyl Sulfate, reference compound]: the “Viability [%] / SD” value in data set [1] (Epiderm, 0.5% (m/m) in caprylic and capric triglyceride, 60 min exposure, 42 h incubation, MTT, relative to negative control, n = 3) worked out at 28.1%.

These data come from PMC6438679, “New lupeol esters as active substances in the treatment of skin damage” (PLoS ONE, 2019).
